The results in this text go back to ChEMBL document CHEMBL5104093, “A comprehensive review on β-lapachone: Mechanisms, structural modifications, and therapeutic potentials” (Eur J Med Chem, 2021).

Data set [1] has as its system HL-60. In words: Cytotoxicity against human HL-60 cells assessed as reduction in cell viability by MTT assay. It counts as functional, cell-based. A general note: Tetrazolium assays rely on reduction of a dye to a coloured formazan, in cell work by metabolically active cells.
In data set [2] the test system is HCT-116. In words: Cytotoxicity against human HCT-116 cells assessed as reduction in cell viability by MTT assay. It counts as functional, cell-based.
The test system of another data set is OVCAR-8. Briefly: Cytotoxicity against human OVCAR-8 cells assessed as reduction in cell viability by MTT assay. In kind it is functional, cell-based.
For data set [3], the system named is SF-295. Briefly: Cytotoxicity against human SF-295 cells assessed as reduction in cell viability by MTT assay. It counts as functional, cell-based.
For another data set, the system named is HepG2. In words: Cytotoxicity against human HepG2 cells assessed as reduction in cell viability incubated for 48 hrs by MTT assay. It counts as functional, cell-based. The conditions noted are these: HepG2, 48 h.
The next data set relates to KB. In words: Cytotoxicity against human KB cells assessed as reduction in cell viability incubated for 48 hrs by MTT assay. It counts as functional, cell-based.
For a further data set, the system named is HeLa. Briefly: Cytotoxicity against human HeLa cells assessed as reduction in cell viability incubated for 48 hrs by MTT assay. In kind it is functional, cell-based.
Another data set deals with MCF7. Briefly: Cytotoxicity against human MCF7 cells assessed as reduction in cell viability incubated for 72 hrs by MTT assay. It counts as functional, cell-based. The conditions noted are these: MCF7, 72 h.
A further data set has as its system HEp-2. Briefly: Cytotoxicity against human HEp-2 cells assessed as reduction in cell viability incubated for 72 hrs by MTT assay. It counts as functional, cell-based. Conditions: HEp-2, 72 h.
Another data set has as its system NCI-H292. In words: Cytotoxicity against human NCI-H292 cells assessed as reduction in cell viability incubated for 72 hrs by MTT assay. In kind it is functional, cell-based. The conditions noted are these: NCI-H292, 72 h.
The test system of the next data set is Staphylococcus aureus. Briefly: Antibacterial activity against Staphylococcus aureus 2065 MA assessed as diameter of bacterial growth inhibition by Mueller-Hinton broth based assay. In kind it is functional.
The subject of the next data set is PC-3. In words: Cytotoxicity against human PC-3 cells assessed as reduction in cell viability incubated for 72 hrs by MTT assay. It counts as functional, cell-based. The conditions noted are these: PC-3, 72 h.
Data set [4] in a line: Selectivity index, ratio of IC50 for human PBMC cells to IC50 for human K562 cells. In kind it is toxicity. Conditions: PBMC cells versus K562 cells, read-out: Ratio IC50.
For data set [5], the system named is SF-295. In words: Cytotoxicity against human SF-295 cells assessed as reduction in cell viability incubated for 72 hrs by MTT assay. It counts as functional, cell-based. Conditions: SF-295, 72 h.
For data set [6], the system named is HCT-116. In words: Cytotoxicity against human HCT-116 cells assessed as reduction in cell viability incubated for 72 hrs by MTT assay. It counts as functional, cell-based. The conditions noted are these: HCT-116, 72 h.
Another data set deals with K562. Briefly: Cytotoxicity against human K562 cells assessed as reduction in cell viability incubated for 72 hrs by MTT assay. In kind it is functional, cell-based. Conditions: K562, 72 h.
Data set [7] in a line: Selectivity index, ratio of IC50 for human PBMC cells to IC50 for human HCT-116 cells. It counts as toxicity. Conditions: PBMC cells versus HCT-116 cells, read-out: Ratio IC50.
Data set [8] concerns Trypanosoma cruzi. Briefly: Antitrypanosomal activity against bloodstream form of Trypanosoma cruzi Y trypomastigotes infected in albino mouse assessed as reduction in viable parasite in blood by Neubauer counting chamber method. It counts as functional, organism-based.
Data set [9] can be described thus: Cytotoxicity against monkey LLC-MK2 cells assessed as reduction in cell viability incubated for 96 hrs by trypan blue assay. It counts as toxicity, cell-based, Macaca mulatta. The conditions noted are these: rhesus monkey, read-out: LC50.
Data set [10] deals with Trypanosoma cruzi. In words: Antitrypanosomal activity against bloodstream form of Trypanosoma cruzi Y trypomastigotes infected in Swiss Webster mouse assessed as reduction in viable parasite in blood incubated for 24 hrs by Neubauer counting chamber based light microscopic analysis. It counts as functional, organism-based.
A further data set concerns Sporothrix schenckii. In words: Antifungal activity against Sporothrix schenckii assessed as fungal growth inhibition incubated for 48 hrs by CLSI-based broth microdilution assay. It counts as functional. (In general: In broth dilution the organism is exposed to a series of concentrations in liquid medium.)
A further data set deals with Sporothrix. Briefly: Antifungal activity against Sporothrix brasiliensis assessed as fungal growth inhibition incubated for 48 hrs by CLSI-based broth microdilution assay. It counts as functional.
A further data set has as its system MDA-MB-435. In words: Cytotoxicity against human MDA-MB-435 cells assessed as reduction in cell viability incubated for 72 hrs by MTT assay. In kind it is functional, cell-based. The conditions noted are these: MDA-MB-435, 72 h.
For a further data set, the system named is B16. Briefly: Cytotoxicity against mouse B16 cells assessed as reduction in cell viability incubated for 72 hrs by MTT assay. In kind it is functional, cell-based. Conditions: B16, 72 h.
Another data set relates to HCT-8. In words: Cytotoxicity against human HCT-8 cells assessed as reduction in cell viability incubated for 72 hrs by MTT assay. The conditions noted are these: HCT-8, 72 h. It counts as functional, cell-based.
The next data set relates to Enterococcus faecalis. In words: Antibacterial activity against Enterococcus faecalis clinical isolates assessed as bacterial growth inhibition by broth macrodilution method. In kind it is functional.
The test system of data set [11] is HL-60. In words: Cytotoxicity against human HL-60 cells assessed as reduction in cell viability incubated for 72 hrs by MTT assay. It counts as functional, cell-based. The conditions noted are these: HL-60, 72 h.
Data set [12] has as its system Mycobacterium tuberculosis. In words: Antimycobacterial activity against Mycobacterium tuberculosis H37Rv ATCC 27294 assessed as bacterial growth inhibition incubated for 5 days by Alamar blue reagent based assay. It counts as functional. The conditions noted are these: ATCC 27294, 120 h, time 5 day. (In general: Alamar Blue is a resazurin reagent that responds to reducing activity.)

For a further data set, the system named is SNB-19. Briefly: Cytotoxicity against human SNB-19 cells assessed as reduction in cell viability incubated for 72 hrs by MTT assay. It counts as functional, cell-based. The conditions noted are these: SNB-19, 72 h.
A short description of data set [13]: Cytotoxicity against mouse L929 cells assessed as reduction in cell viability incubated for 72 hrs by MTT assay. It counts as toxicity, cell-based.
The test system of the next data set is B16-F10. In words: Cytotoxicity against mouse B16-F10 cells assessed as reduction in cell viability incubated for 72 hrs by MTT assay. In kind it is functional, cell-based. Conditions: B16-F10, 72 h.

Converted amounts (≈) assume the structure as drawn.

A word on the IC50: it is the concentration at which inhibition is half-maximal. Take `CO[C@@H]1O[C@H](COC2C3=C(OC2(C)C)c2ccccc2C(=O)C3=O)[C@H]2OC(C)(C)O[C@@H]12` (stereo not given in full): the IC50 with HL-60 [1], in the data set on HCT-116 [2], in the data set with OVCAR-8 and with SF-295 [3] was 0.16 µM in each case.
For the compound `CC1(C)COC2=C(C1)C(=O)C(=O)c1ccccc12` [RHINACANTHONE], the IC50 in the data set on HepG2, in the data set on KB and in the data set on HeLa was 6.9 µM throughout.
Consider `CC(=O)OCC1CC2=C(OC1(C)C)c1ccccc1C(=O)C2=O` (stereo not given), for which the IC50 in the data set with MCF7 came to 2.73 µM; in the data set on HEp-2, 2.26 µM; with NCI-H292 it was 2.26 µM.
Consider `CC1(C)OC2=C(C(=O)C(=O)c3ccccc32)C1Sc1ccccc1` (stereo not given), for which the zone diameter in the data set on Staphylococcus aureus worked out at 11 mm. For the same compound, the IC50 with PC-3, with SF-295 [5], with HCT-116 [6] and in the data set with K562 was 0.9 µM each time. In addition, the selectivity ratio in data set [4] came out at 2.11; in data set [7], 2.96.
On to `CC(=O)OCC1C2=C(OC1(C)C)c1ccccc1C(=O)C2=O` (stereo not given), for which the IC50 in the data set with HEp-2 and with NCI-H292 was 0.6 µM in each case.
Consider `CCCCCCCCC1CC2=C(O1)c1ccccc1C(=O)C2=O` (stereo not given), for which the IC50 in the data set on Trypanosoma cruzi [8] was found to be 86.7 µM. Moreover, in [9], the CC50 at 96 h is 2200 µM.
In the case of `O=C(Cn1ccnc1[N+](=O)[O-])NCc1ccccc1` [BENZNIDAZOLE], in data set [9], the CC50 at 96 h stood at 324 µM. Further, the IC50 with Trypanosoma cruzi [10] was determined as 104 µM.
As usually defined, the MIC is the smallest concentration in the dilution series that meets the test's criterion for growth inhibition. For the compound `CCC(C)n1ncn(-c2ccc(N3CCN(c4ccc(OCC5COC(Cn6cncn6)(c6ccc(Cl)cc6Cl)O5)cc4)CC3)cc2)c1=O` (stereo not given) [ITRACONAZOLE], the MIC in the data set on Sporothrix schenckii and in the data set with Sporothrix was 0.125 µM (≈ 0.0882 µg/mL) throughout.
`CC1(C)OC2=C(C(=O)C(=O)c3ccccc32)C1n1cc(-c2ccccc2)nn1` (stereo not given): the IC50 was below 1.21 µM in the data set on PC-3; below 1.21 µM in the data set with SF-295 [5]; below 1.21 µM in the data set with MDA-MB-435; below 1.21 µM with B16; below 1.21 µM in the data set on HCT-8; 1.21 µM in the data set on HL-60 [11]. Further, the MIC in the data set on Enterococcus faecalis came out at 8 µg/mL (≈ 21.5 µM).
As for `CCCCCCCCCCC1CC2=C(O1)c1ccccc1C(=O)C2=O` (stereo not given), in data set [9], the CC50 at 96 h was 1700 µM.
In the case of `O=C1C(=O)c2ccccc2C2=C1CC(O)CO2` (stereo not given), the concentration for half-maximal inhibition (IC50) in the data set with HepG2, with KB and in the data set with HeLa was 7.61 µM in each case.
`CC1(C)OC2=C(C(=O)C(=O)c3ccccc32)C1CO` (stereo not given): the IC50 in the data set on HEp-2 and in the data set on NCI-H292 was 0.46 µM each time.
As to `Cc1ccc(C2CC(c3ccccc3)C3=C(O2)c2ccccc2C(=O)C3=O)cc1` (stereo not given), the minimal inhibitory concentration (MIC) in data set [12] amounted to 3.12 µg/mL (≈ 8.2 µM).
With `O=C1C(=O)c2ccccc2C2=C1CC(C[Se]c1cccs1)O2` (stereo not given), the IC50 in the data set on PC-3, in the data set on MCF7, in the data set with SNB-19, in the data set on HCT-116 [6] and with B16-F10 was 1.06 µM throughout. In data set [13], the half-inhibitory concentration (IC50) at 72 h was found to be 1.06 µM.
